Here are results for 13 compounds from US12145947B2, “Pyrimidine based modulators and uses thereof” (Quanta Therapeutics, Inc., priority 2022, dated 2024).

For test [1], the target named is T1, GST-tagged KRAS-G12D (2-169) (Homo sapiens, UniProt P01116, G12D).
T1 construct: GST-tagged KRAS-G12D (2-169, Reaction Biology, MSC-11-539); purchased Reaction Biology MSC-11-539 (KRAS G12D); MSC-11-502 (SOS1cat)
Put plainly: Nucleotide exchange assay (NEA), SOS-mediated, HTRF, KRAS G12D. The conditions noted are these: IC50 extracted at 30 min. Type of test: biochemical. A digest of the protocol:
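IC50 values come from 4-parameter fits at the 30 min time point of an SOS-driven exchange read by HTRF, normalised to DMSO (0%) and SOS-free blank (100%). Final reaction: 5 nM GST-KRAS-G12D (2-169), 20 nM SOScat, 150 nM fluorescent GTP-DY-647P1, after 1 h RT compound preincubation with KRAS and Tb-cryptate anti-GST.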

Test [2] deals with AGS cells (KRAS G12D), phospho-ERK. Put plainly: pERK In Cell Western (ICW) assay (Method B), AGS cells. It counts as cell-based. The protocol: pERK ICW is a high throughput screening assay to evaluate the cellular potency of mutant KRAS small molecule inhibitors. KRAS mutant cell lines AGS and GP2D (KRAS^G12D) were purchased from ATCC and maintained respectively in RPMI and DMEM medium supplemented with 10% fetal bovine serum and Penicillin/Streptomycin.
Cells grown in exponential phase were trypsinized, resuspended in fresh media, and viable cells were counted using a cell counter with Trypan Blue (BioRad TC20). Cells were seeded into 384-well plate (Greiner 781091) at density of 5,000 cells/well for AGS and 10,000 cells/well for GP2D and allowed to grow overnight in a 37° C. CO2 incubator. The next day, compounds were dispensed into wells with a ½ log, 10-point serial dilution and top concentration of […] using Tecan D300e dispenser and incubated for 3 hours in a 37° C. CO2 incubator. Cells were then fixed with paraformaldehyde (Electron Microscopy Sciences, 15710, 4% final concentration) for 30 min, permeabilized with wash buffer (1×PBS+0.1% Triton X-100) for 30 min and blocked with Odyssey blocking buffer (Li—COR 927-70001) for 1 hour, all at room temperature (RT). Phospho-ERK antibody (CST 4370L) was diluted 1:500 in Odyssey blocking+0.2% Tween 20 and incubated with cells overnight at 4° C. The next day, plates were washed 5× with wash buffer, incubated with IRDye 800 CW, Goat anti-Rabbit secondary antibody (Li—COR 926-32211, 1:500) and DRAQ5 (CST 4084L, 1:5,000) diluted in Odyssey blocking+0.2% Tween 20 for 1 hour, washed 5×, and imaged on an Odyssey CLx imaging system.
For data analysis, signal intensities from 800 (phosphor-ERK) and 700 (DRAQ5) channels were extracted, and phospho-ERK signals were normalized to DRAQ5 signals for each well and percent of DMSO control values were computed. Data were then imported into Graphpad Prism to compute half-maximal inhibitory concentrations (IC50) using a 4-parameter variable slope model. Z-factor for each plate was computed from signals derived from wells treated with either DMSO or […] of Trametinib. AGS pERK ICW (Method B) IC50 (uM) values of selected compounds are depicted in Table 2 with compounds having a value 0.001 uM to 0.01 uM as ++++; >0.01 uM to 0.1 uM as +++; >0.1 uM to 1 uM as ++; 1 uM to 10 uM as + and >10 uM as NA.

Where [3] appears, read: Homo sapiens, Table 4, pERK, 3 hours, read-out: ICW-AGS.

Where two headings read alike, the source gives them in different places.

T1 sequence (P01116 2-169 isoform P01116-2 G12D): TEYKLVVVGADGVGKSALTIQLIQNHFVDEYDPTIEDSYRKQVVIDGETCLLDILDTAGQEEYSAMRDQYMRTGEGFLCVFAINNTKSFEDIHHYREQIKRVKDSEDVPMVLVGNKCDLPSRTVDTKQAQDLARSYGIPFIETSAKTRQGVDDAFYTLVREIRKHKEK

With `N#Cc1c(N2CCCn3nc(C(=O)C4CC4)c(Cl)c3C2)nc(OC[C@@]23CCCN2C[C@H](F)C3)nc1N1CC2(CCc3sc(N)c(C#N)c32)C1` [Compound 62, 2-amino-1′-[6-[3-chloro-2-(cyclopropanecarbonyl)-4,6,7,8-tetrahydropyrazolo[1,5-a][1,4]diazepin-5-yl]-5-cyano-2-[[(2R,8S)-2-fluoro-1,2,3,5,6,7-hexahydropyrrolizin-8-yl]methoxy]pyrimidin-4-yl]spiro[5,6-dihydrocyclopenta[b]thiophene-4,3′-azetidine]-3-carbonitrile], the IC50 is less than 10 nM in test [1] (Table 4) and 0.01 to 0.1 µM in test [2] (setting [3]).
On to `CN(C)C(=O)c1nn2c(c1Cl)CN(c1nc(OC[C@@]34CCCN3C[C@H](F)C4)nc(N3CC4(CCCc5sc(N)c(C#N)c54)C3)c1C#N)CCC2` [Compound 3, 5-[6-(2-amino-3-cyano-spiro[6,7-dihydro-5H-benzothiophene-4,3′-azetidine]-1′-yl)-5-cyano-2-[[(2R,8S)-2-fluoro-1,2,3,5,6,7-hexahydropyrrolizin-8-yl]methoxy]pyrimidin-4-yl]-3-chloro-N,N-dimethyl-4,6,7,8-tetrahydropyrazolo[1,5-a][1,4]diazepine-2-carboxamide], for which the IC50 in test [1] (Table 2) was less than 10 nM; in test [1] (Table 4), less than 10 nM; in test [2] (setting [3]) it was 0.01 to 0.1 µM.
Consider `CN1CCN(CC2(COc3nc(N4C[C@H]5CC[C@@H](C4)N5)c(C#N)c(N4CC5(CCc6sc(N)c(C#N)c65)C4)n3)CC2)CC1=O` [Compound 80, 2-amino-1′-[5-cyano-2-[[1-[(4-methyl-3-oxo-piperazin-1-yl)methyl]cyclopropyl]methoxy]-6-[(1R,5S)-3,8-diazabicyclo[3.2.1]octan-3-yl]pyrimidin-4-yl]spiro[5,6-dihydrocyclopenta[b]thiophene-4,3′-azetidine]-3-carbonitrile], for which the IC50 is less than 10 nM in test [1] (Table 4) and 0.01 to 0.1 µM in test [2] (setting [3]).
In the case of `CC(=O)c1nn2c(c1Cl)CN(c1nc(OC[C@@]34CCCN3C[C@H](F)C4)nc(N3CC4(CCc5sc(N)c(C#N)c54)C3)c1C#N)CCC2` [Compound 13, 1′-[6-(2-acetyl-3-chloro-4,6,7,8-tetrahydropyrazolo[1,5-a][1,4]diazepin-5-yl)-5-cyano-2-[[(2R,8S)-2-fluoro-1,2,3,5,6,7-hexahydropyrrolizin-8-yl]methoxy]pyrimidin-4-yl]-2-amino-spiro[5,6-dihydrocyclopenta[b]thiophene-4,3′-azetidine]-3-carbonitrile], the IC50 in test [1] (Table 4) is less than 10 nM; in test [2] (setting [3]), 0.01 to 0.1 µM.
With `CN(C)CC1(COc2nc(N3CC4CCC(C3)N4)c(C#N)c(N3CC4(CCc5sc(N)c(C#N)c54)C3)n2)CC1(F)F` (stereo not drawn) [Compound 74A, 2-amino-1′-[5-cyano-6-(3,8-diazabicyclo[3.2.1]octan-3-yl)-2-[[(1*)-1-[(dimethylamino)methyl]-2,2-difluoro-cyclopropyl]methoxy]pyrimidin-4-yl]spiro[5,6-dihydrocyclopenta[b]thiophene-4,3′-azetidine]-3-carbonitrile], the IC50 in test [1] (Table 4, listed as 74.1) was less than 10 nM; in test [2] (Table 4, pERK, 3 hours, read-out: ICW-AGS) it was 0.001 to 0.01 µM.
For the compound `CN(C)C(=O)c1nn2c(c1Cl)CN(c1nc(OCC34CCCN3CCC4)nc(N3CC4(CCc5sc(N)c(C#N)c54)C3)c1C#N)CCC2` [Compound 18, 5-[6-(2-amino-3-cyano-spiro[5,6-dihydrocyclopenta[b]thiophene-4,3′-azetidine]-1′-yl)-5-cyano-2-(1,2,3,5,6,7-hexahydropyrrolizin-8-ylmethoxy)pyrimidin-4-yl]-3-chloro-N,N-dimethyl-4,6,7,8-tetrahydropyrazolo[1,5-a][1,4]diazepine-2-carboxamide], the IC50 was less than 10 nM in test [1] (Table 4) and 0.1 to 1 µM in test [2] (setting [3]).
Turning to `N#Cc1c(N2C[C@H]3COC[C@@H](C2)N3)nc(OCC2(CN3CCOCC3)CC2)nc1N1CC2(CCc3sc(N)c(C#N)c32)C1` [Compound 42, 2-amino-1′-[5-cyano-2-[[1-(morpholinomethyl)cyclopropyl]methoxy]-6-(3-oxa-7,9-diazabicyclo[3.3.1]nonan-7-yl)pyrimidin-4-yl]spiro[5,6-dihydrocyclopenta[b]thiophene-4,3′-azetidine]-3-carbonitrile], the values for the IC50 in test [1] (Table 4) and in test [2] (setting [3]) were less than 10 nM and 0.1 to 1 µM, respectively.
For `CN(C)C(=O)c1nn2c(c1Cl)CN(c1nc(OC[C@@]34CCCN3C[C@H](F)C4)nc(N3CC4(CCc5sc(N)c(C#N)c54)C3)c1C#N)CCC2` [Compound 2, 5-[6-(2-amino-3-cyano-spiro[5,6-dihydrocyclopenta[b]thiophene-4,3′-azetidine]-1′-yl)-5-cyano-2-[[(2R,8S)-2-fluoro-1,2,3,5,6,7-hexahydropyrrolizin-8-yl]methoxy]pyrimidin-4-yl]-3-chloro-N,N-dimethyl-4,6,7,8-tetrahydropyrazolo[1,5-a][1,4]diazepine-2-carboxamide], the IC50 in test [1] (Table 2) is less than 10 nM; in test [1] (Table 4), less than 10 nM; in test [2] (Homo sapiens, Table 2, 3 hours, ICW, read-out: pERK-AGS (uM) Method B), 0.01 to 0.1 µM; in test [2] (setting [3]) it was 0.01 to 0.1 µM.
For the compound `Cn1nccc1COc1nc(N2C[C@H]3CC[C@@H](C2)N3)c(C#N)c(N2CC3(CCc4sc(N)c(C#N)c43)C2)n1` [Compound 97, 2-amino-1′-[5-cyano-2-[(2-methylpyrazol-3-yl)methoxy]-6-[(1R,5S)-3,8-diazabicyclo[3.2.1]octan-3-yl]pyrimidin-4-yl]spiro[5,6-dihydrocyclopenta[b]thiophene-4,3′-azetidine]-3-carbonitrile], in test [1] (Table 4), the IC50 was less than 10 nM.
For `N#Cc1c(N2CCCC(=O)CC2)nc(OC[C@@]23CCCN2C[C@H](F)C3)nc1N1CC2(CCc3sc(N)c(C#N)c32)C1` [Compound 49, 2-amino-1′-[5-cyano-2-[[(2R,8S)-2-fluoro-1,2,3,5,6,7-hexahydropyrrolizin-8-yl]methoxy]-6-(4-oxoazepan-1-yl)pyrimidin-4-yl]spiro[5,6-dihydrocyclopenta[b]thiophene-4,3′-azetidine]-3-carbonitrile], the IC50 in test [1] (Table 4) was in the range of 10 to 100 nM.
On to `N#Cc1c(N2C[C@H]3CC[C@@H](C2)N3)nc(OCC2(CN3CCOCC3)CC2)nc1N1CC2(C1)SCc1sc(N)c(C#N)c12` [Compound 100, 2-amino-1′-[5-cyano-6-[(1R,5S)-3,8-diazabicyclo[3.2.1]octan-3-yl]-2-[[1-(morpholinomethyl)cyclopropyl]methoxy]pyrimidin-4-yl]spiro[6H-thieno[2,3-c]thiophene-4,3′-azetidine]-3-carbonitrile], for which, in test [1] (Table 4), the IC50 is less than 10 nM.
Turning to `N#Cc1c(N2CCCn3nc(-c4ccccn4)c(Cl)c3C2)nc(OCC2(CN3CCOCC3)CC2)nc1N1CC2(CCc3sc(N)c(C#N)c32)C1` [Compound 75, 2-amino-1′-[6-[3-chloro-2-(2-pyridyl)-4,6,7,8-tetrahydropyrazolo[1,5-a][1,4]diazepin-5-yl]-5-cyano-2-[[1-(morpholinomethyl)cyclopropyl]methoxy]pyrimidin-4-yl]spiro[5,6-dihydrocyclopenta[b]thiophene-4,3′-azetidine]-3-carbonitrile], in test [1] (Table 4), the IC50 was less than 10 nM.
The same measure, in the same setting: the value for `N#Cc1c(N2C[C@H]3CC[C@@H](C2)N3)nc(OCC2(CN3CCOCC3)CC2)nc1N1CC2(CSc3sc(N)c(C#N)c32)C1` [Compound 73, 5-amino-1′-[5-cyano-2-[[1-(morpholinomethyl)cyclopropyl]methoxy]-6-[(1R,5S)-3,8-diazabicyclo[3.2.1]octan-3-yl]pyrimidin-4-yl]spiro[2H-thieno[2,3-b]thiophene-3,3′-azetidine]-4-carbonitrile] was less than 10 nM.
